Measured values: patent US9144239B2, “Macrocyclic picolinamides as fungicides” (DOW AGROSCIENCES LLC, priority 2012, dated 2015)
Read-outs that look alike come from different tables or passages of the source.

Assays:
[1] = tested on: Mycosphaerella graminicola; anamorph: Septoria tritici; assay: Fungicidal activity: leaf blotch of wheat (SEPTTR), wheat seedlings; type: in vivo; settings: Zymoseptoria tritici, 100 ppm, wheat
Protocol: Evaluation of Fungicidal Activity: Leaf Blotch of Wheat (Mycosphaerella Graminicola; Anamorph: Septoria tritici; Bayer Code […]) Technical grades of materials were dissolved in acetone, which were then mixed with nine volumes of water containing 110 ppm Triton X-100. The fungicide solutions were applied onto wheat seedlings using an automated booth sprayer to run-off. All sprayed plants were allowed to air dry prior to further handling. Wheat plants (variety Yuma) were grown from seed in a greenhouse in 50% mineral soil/50% soil-less Metro mix until the first leaf was fully emerged, with 7-10 seedlings per pot. These plants were inoculated with an aqueous spore suspension of Septoria tritici either prior to or after fungicide treatments. After inoculation the plants were kept in 100% relative humidity (one day in a dark dew chamber followed by two to three days in a lighted dew chamber at 20° C.) to permit spores to germinate and infect the leaf. The plants were then transferred to a greenhouse set at 20° C. for disease to develop. When disease symptoms were fully expressed on the 1st leaves of untreated plants, infection levels were assessed on a scale of 0 to 100 percent disease severity. Percent disease control was calculated using the ratio of disease severity on treated plants relative to untreated plants.

[2] = tested on: Puccinia triticina; synonym: Puccinia recondita f. sp. tritici; assay: Fungicidal activity: wheat brown rust (PUCCRT), wheat seedlings; type: in vivo; settings: 100 ppm, wheat
Protocol: Technical grades of materials were dissolved in acetone, which were then mixed with nine volumes of water containing 110 ppm Triton X-100. The fungicide solutions were applied onto wheat seedlings using an automated booth sprayer to run-off. All sprayed plants were allowed to air dry prior to further handling. Wheat plants (variety Yuma) were grown from seed in a greenhouse in 50% mineral soil/50% soil-less Metro mix until the first leaf was fully emerged, with 7-10 seedlings per pot. These plants were inoculated with an aqueous spore suspension of Septoria tritici either prior to or after fungicide treatments. After inoculation the plants were kept in 100% relative humidity (one day in a dark dew chamber followed by two to three days in a lighted dew chamber at 20° C.) to permit spores to germinate and infect the leaf. The plants were then transferred to a greenhouse set at 20° C. for disease to develop. When disease symptoms were fully expressed on the 1st leaves of untreated plants, infection levels were assessed on a scale of 0 to 100 percent disease severity. Percent disease control was calculated using the ratio of disease severity on treated plants relative to untreated plants. Evaluation of Fungicidal Activity: Wheat Brown Rust (Puccinia […]; Synonym: Puccinia recondita f. Sp. Tritici; Bayer Code PUCCRT) Wheat plants (variety Yuma) were grown from seed in a greenhouse in 50% mineral soil/50% soil-less Metro mix until the first leaf was fully emerged, with 7-10 seedlings per pot. These plants were inoculated with an aqueous spore suspension of Puccinia triticina either prior to or after fungicide treatments. After inoculation the plants were kept in a dark dew room at 22° C. with 100% relative humidity overnight to permit spores to germinate and infect the leaf. The plants were then transferred to a greenhouse set at 24° C. for disease to develop. Fungicide formulation, application and disease assessment followed the procedures as described in the Example A.

[3] = 24 h, 1 Day Protectant, read-out: Disease Control SEPTTR 1DP
[4] = 72 h, 3 Day Curative, read-out: Disease Control SEPTTR 3DC
[5] = 24 h, 1 Day Protectant, read-out: Disease Control PUCCRT 1DP
[6] = 72 h, 3 Day Curative, read-out: Disease Control PUCCRT 3DC

| SMILES | pest or weed control at 100 ppm [1, 3] [%] | pest or weed control at 100 ppm [1, 4] [%] | pest or weed control at 100 ppm [2, 5] [%] | pest or weed control at 100 ppm [2, 6] [%] |
| --- | --- | --- | --- | --- |
| CC[C@H]1OC(=O)[C@@H](NC(=O)c2nccc(OC)c2OCOC(C)=O)COC[C@H](OCC(C)C)[C@H]1OCC(C)C [Compound 20] | 0 to 80 | 0 to 80 |  |  |
| COc1ccnc(C(=O)N[C@H]2COC[C@H](OCc3ccccc3)[C@@H](OCc3ccccc3)[C@@H](C)OC2=O)c1OCOC(C)=O [Compound 51] | 0 to 80 | 0 to 80 | 0 to 80 | 0 to 80 |
| COc1ccnc(C(=O)N[C@H]2COC[C@H](OCC3CC3)[C@@H](OCC3CC3)[C@H](C)OC2=O)c1OCOC(C)=O [Compound 233] | 80 to 100 | 0 to 80 | 80 to 100 | 80 to 100 |
| CCCO[C@H]1COC[C@H](NC(=O)c2nccc(OC)c2O)C(=O)O[C@@H](C)[C@@H]1Oc1ccccc1 [Compound 202] | 80 to 100 | 80 to 100 | 80 to 100 | 80 to 100 |
| COc1ccnc(C(=O)N[C@H]2COC[C@H](OCc3ccccc3)[C@@H](OCc3ccccc3)[C@@H](C)OC2=O)c1O [Compound 49] | 0 to 80 | 0 to 80 | 0 to 80 | 0 to 80 |
| CCOCC(=O)OCOc1c(OC)ccnc1C(=O)N[C@H]1COC[C@H](Oc2ccc(C)cc2)[C@@H](Oc2ccc(C)cc2)[C@H](C)OC1=O [Compound 225] | 80 to 100 | 80 to 100 | 80 to 100 | 80 to 100 |
| COc1ccnc(C(=O)N[C@H]2COC[C@H](Oc3ccccc3)[C@@H](O)[C@H](C)OC2=O)c1O [Compound 211] |  | 0 to 80 | 0 to 80 |  |
| COc1ccnc(C(=O)N[C@H]2COC[C@H](Oc3ccccc3)[C@@H](OCC=C3CCCCC3)[C@H](C)OC2=O)c1O [Compound 212] | 80 to 100 | 0 to 80 | 80 to 100 | 0 to 80 |
| COc1ccnc(C(=O)N[C@H]2COC[C@H](OCc3ccccc3)[C@@H](OCc3ccccc3)COC2=O)c1O [Compound 5, N-((3S,7S,8S)-7,8-bis(benzyloxy)-2-oxo-1,5-dioxonan-3-yl)-3-hydroxy-4-methoxypicolinamide] | 0 to 80 | 0 to 80 | 0 to 80 | 0 to 80 |
| CCCCO[C@H]1COC[C@H](NC(=O)c2nccc(OC)c2O)C(=O)O[C@@H](C)[C@@H]1O [Compound 42, N-((3S,7S,8S,9S)-7-butoxy-8-hydroxy-9-methyl-2-oxo-1,5-dioxonan-3-yl)-3-hydroxy-4-methoxypicolinamide] | 0 to 80 | 0 to 80 | 80 to 100 | 80 to 100 |
| COc1ccnc(C(=O)N[C@H]2CO[C@H](C)[C@H]3OC(C)(C)O[C@@H]3[C@@H](C)OC2=O)c1O [Compound 27] | 0 to 80 | 0 to 80 | 0 to 80 | 0 to 80 |
| COc1ccnc(C(=O)N[C@H]2COC[C@H](Oc3ccccc3)[C@@H](OC3CCCC3)[C@H](C)OC2=O)c1OCOC(C)=O [Compound 224] | 80 to 100 | 80 to 100 | 80 to 100 | 80 to 100 |
| COc1ccc(O[C@H]2[C@H](C)OC(=O)[C@@H](NC(=O)c3nccc(OC)c3O)COC[C@@H]2OC(=O)C(C)C)cc1 [Compound 199] | 0 to 80 |  | 80 to 100 |  |
| CC[C@H]1OC(=O)[C@H](NC(=O)c2nccc(OC)c2O)COC[C@H](OCC(C)C)[C@H]1OCC(C)C [Compound 22] | 0 to 80 | 0 to 80 |  |  |
| COc1ccnc(C(=O)N[C@H]2COC[C@H](OC3CCCC3)[C@@H](Oc3ccccc3)[C@H](C)OC2=O)c1OCOC(C)=O [Compound 223] | 80 to 100 | 80 to 100 | 80 to 100 | 80 to 100 |
| CCCO[C@H]1[C@H](C)OC(=O)[C@@H](NC(=O)c2nccc(OC)c2O)COC[C@@H]1Oc1ccc(C(F)(F)F)cc1 [Compound 197] |  |  | 80 to 100 |  |
| CCC(C)(C)O[C@H]1[C@H](C)OC(=O)[C@@H](NC(=O)c2nccc(OC)c2O)COC[C@@H]1OCC(C)C [Compound 79] | 80 to 100 | 80 to 100 | 80 to 100 | 80 to 100 |
| COc1ccnc(C(=O)N[C@H]2COC[C@H](Oc3ccc(F)cc3)[C@@H](Oc3ccc(F)cc3)[C@H](C)OC2=O)c1O [Compound 208] | 80 to 100 | 0 to 80 | 80 to 100 |  |
| COc1ccnc(C(=O)N[C@H]2COC[C@H](Oc3cc(C)cc(C)c3)[C@@H](Oc3cc(C)cc(C)c3)[C@H](C)OC2=O)c1O [Compound 198] | 80 to 100 |  | 0 to 80 |  |
| COc1ccnc(C(=O)N[C@H]2CO[C@@H](C)C(OCc3ccccc3)C(OCc3ccccc3)[C@H](C)OC2=O)c1OCOC(C)=O (stereo partly shown) [Compound 28] | 80 to 100 | 80 to 100 | 80 to 100 | 80 to 100 |
| COc1ccnc(C(=O)N[C@H]2CO[C@@H](C)[C@H](OCC(C)C)[C@@H](OCC(C)C)COC2=O)c1O [Compound 4] | 80 to 100 | 80 to 100 | 80 to 100 |  |
| CC[C@H]1OC(=O)[C@H](NC(=O)c2nccc(OC)c2OCOC(C)=O)COC[C@H](OCC(C)C)[C@H]1OCC(C)C [Compound 24] | 0 to 80 | 0 to 80 | 0 to 80 | 0 to 80 |
| C=C(C)CO[C@H]1COC[C@@H](NC(=O)c2nccc(OC)c2O)C(=O)OC[C@@H]1OCC(=C)C [Compound 9] | 0 to 80 | 0 to 80 | 0 to 80 | 0 to 80 |
| COc1ccnc(C(=O)N[C@@H]2COC[C@@H](OCc3ccccc3)[C@H](OCc3ccccc3)[C@H](C)OC2=O)c1OCOC(C)=O [Compound 41] | 0 to 80 | 0 to 80 | 0 to 80 |  |
| COc1ccnc(C(=O)N[C@H]2COC[C@H](OCC(C)C)[C@@H](Oc3ccc(C(F)(F)F)cc3)[C@H](C)OC2=O)c1O [Compound 195] |  |  | 80 to 100 |  |
| CCCO[C@H]1[C@H](C)OC(=O)[C@@H](NC(=O)c2nccc(OC)c2O)COC[C@@H]1Oc1ccccc1 [Compound 203] | 80 to 100 | 80 to 100 | 80 to 100 | 80 to 100 |
| CCOCC(=O)OCOc1c(OC)ccnc1C(=O)N[C@H]1COC[C@H](Oc2ccc(F)cc2)[C@@H](OCC(C)C)[C@H](C)OC1=O [Compound 227] | 80 to 100 | 80 to 100 | 80 to 100 | 80 to 100 |
| COc1ccc(O[C@H]2COC[C@H](NC(=O)c3nccc(OC)c3O)C(=O)O[C@@H](C)[C@@H]2OC(=O)C(C)C)cc1 [Compound 200] | 0 to 80 |  |  |  |
| COc1ccnc(C(=O)N[C@H]2COC[C@H](OCC(C)C)[C@@H](Oc3cccc(Cl)c3)[C@H](C)OC2=O)c1O [Compound 194] |  |  | 80 to 100 | 80 to 100 |
| CC[C@H]1OC(=O)[C@@H](NC(=O)c2nccc(OC)c2O)COC[C@H](OCC(C)C)[C@H]1OCC(C)C [Compound 19, N-((3S,7S,8S,9R)-9-ethyl-7,8-diisobutoxy-2-oxo-1,5-dioxonan-3-yl)-3-hydroxy-4-methoxypicolinamide] | 0 to 80 | 0 to 80 |  |  |
